Data taken from ChEMBL document CHEMBL2177079, “Free-Wilson and structural approaches to co-optimizing human and rodent isoform potency for 11β-hydroxysteroid dehydrogenase type 1 (11β-HSD1) inhibitors” (J Med Chem, 2012).

Columns and labels:
[1] = Oral bioavailability in Han Wistar rat at 7.4 to 14.7 umol/kg; assay type: ADME, organism-based; details: Han Wistar, in vivo
[2] = Lipophilicity, log D at pH 7.4; assay type: physicochemical; details: buffer
[3] = molecular target: 11-beta-hydroxysteroid dehydrogenase 1 (Mus musculus, UniProt P50172); experiment: Inhibition of mouse 11beta-HSD1 by HTRF assay
Chain of 11-beta-hydroxysteroid dehydrogenase 1 (Mus musculus, UniProt P50172) (P50172 whole entry): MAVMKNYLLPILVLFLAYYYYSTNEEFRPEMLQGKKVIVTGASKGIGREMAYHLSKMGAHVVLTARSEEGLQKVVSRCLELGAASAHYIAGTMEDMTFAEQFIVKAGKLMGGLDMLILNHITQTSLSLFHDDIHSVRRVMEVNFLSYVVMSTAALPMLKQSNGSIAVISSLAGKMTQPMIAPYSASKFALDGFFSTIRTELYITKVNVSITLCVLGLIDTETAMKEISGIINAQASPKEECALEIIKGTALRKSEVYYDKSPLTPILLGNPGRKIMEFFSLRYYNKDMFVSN

[4] = molecular target: 11-beta-hydroxysteroid dehydrogenase 1 (Homo sapiens, UniProt P28845); experiment: Inhibition of human 11beta-HSD1 by HTRF assay
Chain of 11-beta-hydroxysteroid dehydrogenase 1 (Homo sapiens, UniProt P28845) (P28845 whole entry): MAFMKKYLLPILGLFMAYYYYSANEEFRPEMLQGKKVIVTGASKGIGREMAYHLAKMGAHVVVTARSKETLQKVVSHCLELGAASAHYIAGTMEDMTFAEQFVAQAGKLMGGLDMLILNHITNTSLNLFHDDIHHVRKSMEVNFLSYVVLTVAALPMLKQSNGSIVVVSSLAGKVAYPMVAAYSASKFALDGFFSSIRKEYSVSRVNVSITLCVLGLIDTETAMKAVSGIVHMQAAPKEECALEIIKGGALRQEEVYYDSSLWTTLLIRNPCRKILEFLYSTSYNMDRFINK

Compound	bioavailability [1]	logD [2]	IC50 [3]	IC50 [4]
O=C(N[C@H]1C2CC3CC1C[C@](O)(C3)C2)c1cnc(N[C@H]2CCOC2)nc1C1CC1	73%	1.7		
CC(C)(O)CNc1ncc(C(=O)N[C@H]2C3CC4CC2C[C@](O)(C4)C3)c(C2CCCC2)n1	33%	2.3	48 nM	
O=C(N[C@H]1C2CC3CC1C[C@](O)(C3)C2)c1cnc(NC2CCOCC2)nc1C1CCCC1		2.6	38 nM	
O=C(N[C@H]1C2CC3CC1C[C@](O)(C3)C2)c1cnc(NC2CCS(=O)(=O)CC2)nc1C1CCC1		1.1		
CC(C)Oc1nc(NC2COC2)ncc1C(=O)N[C@H]1C2CC3CC1C[C@](O)(C3)C2	57%	2.2	53 nM	
O=C(N[C@H]1C2CC3CC1C[C@](O)(C3)C2)c1cnc(NCCO)nc1OC1CCC1	51%	2.5	31 nM	
O=C(N[C@H]1C2CC3CC1C[C@](O)(C3)C2)c1cnc(NCCO)nc1C1CCC1		1.3		
O=C(N[C@H]1C2CC3CC1C[C@](O)(C3)C2)c1cnc(NC[C@@H]2CCCO2)nc1C1CCCC1 (single isomer, unassigned)		2.7	25 nM	
O=C(N[C@H]1C2CC3CC1C[C@](O)(C3)C2)c1cnc(N[C@@H]2CCOC2)nc1C1CCC1	99%	2	37 nM	
O=C(N[C@H]1C2CC3CC1C[C@](O)(C3)C2)c1cnc(NC[C@H]2CCCO2)nc1C1CCCC1		2.8	42 nM	
CN(C)C(=O)CNc1ncc(C(=O)N[C@H]2C3CC4CC2C[C@](O)(C4)C3)c(C2CCCC2)n1		1.4	163 nM	
CC(C)Oc1nc(N[C@H]2CCOC2)ncc1C(=O)N[C@H]1C2CC3CC1C[C@](O)(C3)C2	83%	2.5		
O=C(N[C@H]1C2CC3CC1C[C@](O)(C3)C2)c1cnc(N[C@H]2CCOC2)nc1OC1CCC1	99%	2.8	22 nM	
O=C1CC[C@@H](Nc2ncc(C(=O)N[C@H]3C4CC5CC3C[C@](O)(C5)C4)c(C3CCCC3)n2)CN1		1.6	133 nM	
CC(=O)N1CC[C@@H](Nc2ncc(C(=O)N[C@H]3C4CC5CC3C[C@](O)(C5)C4)c(C3CCCC3)n2)C1	18%	1.8	50 nM	
O=C(N[C@H]1C2CC3CC1C[C@](O)(C3)C2)c1cnc(N[C@H]2CCOC2)nc1C1CCC1	82%	1.8	42 nM	
CC(=O)N1CCC(Nc2ncc(C(=O)N[C@H]3C4CC5CC3C[C@](O)(C5)C4)c(C3CCCC3)n2)CC1	46%	1.9	84 nM	
O=C(N[C@H]1C2CC3CC1C[C@](O)(C3)C2)c1cnc(N[C@H]2CCNC2=O)nc1C1CCCC1		0.9	55 nM	
O=C(N[C@H]1C2CC3CC1C[C@](O)(C3)C2)c1cnc(NC2COC2)nc1C1CC1		1.1	38 nM	
O=C(N[C@H]1C2CC3CC1C[C@](O)(C3)C2)c1cnc(NC2CCS(=O)(=O)CC2)nc1OC1CCC1		2.1	31 nM	
O=C1C[C@H](CNc2ncc(C(=O)N[C@H]3C4CC5CC3C[C@](O)(C5)C4)c(C3CCCC3)n2)CN1	9%	1.4	85 nM	
CC(C)(CO)Nc1ncc(C(=O)N[C@H]2C3CC4CC2C[C@](O)(C4)C3)c(C2CCCC2)n1		2.5	32 nM	
O=C(N[C@H]1C2CC3CC1C[C@](O)(C3)C2)c1cnc(NCCO)nc1C1CCCC1		1.8	179 nM	
CC(C)Oc1nc(N[C@@H]2CCOC2)ncc1C(=O)N[C@H]1C2CC3CC1C[C@](O)(C3)C2	62%	2.7		
O=C(N[C@H]1C2CC3CC1C[C@](O)(C3)C2)c1cnc(N[C@H]2CCC[C@H]2O)nc1C1CCCC1	17%	2.7	36 nM	
CC(C)(O)CNc1ncc(C(=O)N[C@H]2C3CC4CC2C[C@](O)(C4)C3)c(C2CC2)n1		1.5	31 nM	

Results, then the compound that gave them:

bioavailability [1]	logD [2]	IC50 [3]	IC50 [4]	Compound
53%	1.8	22 nM		O=C(N[C@H]1C2CC3CC1C[C@](O)(C3)C2)c1cnc(NC2CCOCC2)nc1C1CC1
	2	42 nM		C[C@H](O)CNc1ncc(C(=O)N[C@H]2C3CC4CC2C[C@](O)(C4)C3)c(C2CCCC2)n1
99%	2.9	16 nM		O=C(N[C@H]1C2CC3CC1C[C@](O)(C3)C2)c1cnc(N[C@@H]2CCOC2)nc1OC1CCC1
63%	2.4	25 nM	21 nM	O=C(N[C@H]1C2CC3CC1C[C@](O)(C3)C2)c1cnc(N[C@@H]2CCOC2)nc1C1CCCC1
	1.6			O=C(N[C@H]1C2CC3CC1C[C@](O)(C3)C2)c1cnc(N[C@@H]2CCOC2)nc1C1CC1
19%	2.6	33 nM		O=C(N[C@H]1C2CC3CC1C[C@](O)(C3)C2)c1cnc(NC2COC2)nc1OC1CCC1
	1.6	64 nM		O=C(N[C@H]1C2CC3CC1C[C@](O)(C3)C2)c1cnc(NC2CCS(=O)(=O)CC2)nc1C1CCCC1
	2.4	73 nM		COCCNc1ncc(C(=O)N[C@H]2C3CC4CC2C[C@](O)(C4)C3)c(C2CCCC2)n1
	1.8	20 nM		CC(C)(CO)Nc1ncc(C(=O)N[C@H]2C3CC4CC2C[C@](O)(C4)C3)c(C2CC2)n1
86%	1.8			CC(C)(O)CNc1ncc(C(=O)N[C@H]2C3CC4CC2C[C@](O)(C4)C3)c(C2CCC2)n1
68%	2	67 nM		C[C@@H](O)CNc1ncc(C(=O)N[C@H]2C3CC4CC2C[C@](O)(C4)C3)c(C2CCCC2)n1
	2.1	66 nM		O=C(N[C@H]1C2CC3CC1C[C@](O)(C3)C2)c1cnc(NC2COC2)nc1C1CCCC1
83%	3.2	19 nM		O=C(N[C@H]1C2CC3CC1C[C@](O)(C3)C2)c1cnc(NC2CCOCC2)nc1OC1CCC1
